# Measurements from US20080145858A1, “DETECTION AND IDENTIFICATION OF TOXICANTS BY MEASUREMENT OF GENE […]” (priority 2003, published 2008).
# Tested on: Xenopus laevis cleavage stage embryos (stage 8)
# Experiment: Xenopus cDNA microarray, differential gene expression after PMA treatment during cleavage stage (Group I)
# Type: in vivo
# Settings: PMA 100 ng/ml, stage 8
# Description: Specifically, the method and screen of the present invention function as follows. EST clones produced from Xenopus laevis unfertilized eggs were used in the present study with ˜1,200 EST clones from a 18,500 EST clone set selected for production of a Xenopus cDNA microarray. The Xenopus microarray was used to measure the effect of chemical treatment on Xenopus embryo gene regulation. The chemical treatment was a phorbol ester, PMA. Xenopus eggs were obtained from females induced for ovulation and fertilized in vitro. Control Xenopus laevis embryos were allowed to develop to stage 8 blastula or stage 15 neurula. Treated embryos were exposed to PMA during cleavage stage or during neurulation with end points of blastula (stage 8) or neurula (stage 15). Specifically, PMA 100 ng/ml was added to the incubation media during cleavage stages for evaluation in stage 8 embryo or PMA was added during neural induction for evaluation in stage 15 embryos. RNA extracted from the embryos was used to generate fluorescent cDNA probes for Xenopus microarray analyses to measure differential gene expression with and without the phorbol ester treatment. Analysis was performed using paired RNA samples to compare PMA-treated and untreated embryos: Group I measured the effects of PMA-treatment during the cleavage stage in stage 8 embryos and Group II measured the effects of PMA-treatment during neurulation in stage 15 embryos. Group III measured the change in gene expression between stage 8 and stage 15 embryos.
# cDNA fragments were obtained by PCR replication of Xenopus laevis unfertilized egg cDNA inserts, purified, quantitated and loaded onto glass chips by robotics. In addition to the selected ˜1,200 genes, 64 lambda Q gene, an internal control cDNA (Genomic Solutions, Inc., Ann Arbor, Mich.) was loaded on the chip. The insert DNA from ˜1,200 clones were PCR amplified using forward and reverse primers (GF.200 primers, Research Genetics, Huntsville, Ala.). A second PCR was carried out using 1 μl of the primary PCR (20 μl) for template. Excess dNTPs, polymerase and other PCR artifacts were removed from the secondary PCR reactions using Millipore Multiscreen plates (Millipore Corporation, Bedford, Mass.) using the standard protocol. The purity of the PCR products was assessed by electrophoresis and documented using an Alphalmager 1000 Digital Imaging System (Alpha Innotech Corporation, San Leandro, Calif.). The DNA obtained by PCR was quantitated using PicoGreen (Molecular Probes, Eugene, Oreg.). The DNA was denatured and arrayed onto amino-silane coated microscope slides (CMT-GAPS coated slides, Corning, Corning, N.Y.) using a Flexys robotic workstation (Genomic Solutions Inc.). The ˜1,200 PCR products were arrayed in duplicate on each slide and cross-linked. Each gene chip contained duplicate cDNA samples.
# Total RNA was prepared from embryos treated in three separate dishes per treatment group that were pooled. Total RNA was isolated from the frog embryos (1,200 embryos for each probe production) using TRIzol extraction (Gibco BRL, Grand Island, N.Y.) and Qiagen RNeasy kits (Qiagen, Valencia, Calif.). The ethanol precipitated RNA was resuspended in RNase-free water, quantitated with RiboGreen (Molecular Probes, Eugene, Oreg.). Total RNA was further purified using oligoTex mRNA maxi kit (Qiagen Co.) with the bound mRNA eluted with minimum volume of elution buffer and precipitated with ethanol. The recovery rate of mRNA by the ethanol precipitation method was ˜70%. Cy3- or Cy5-tagged probes were produced from an mRNA mixture (20 μl) of Xenopus mRNA (5 μg) and lambda Q gene mRNA (3.5 ng) reverse-transcribed with oligo(dT)18-22 primer and dNTPs and the reverse-transcribed cDNA was cross-linked with Cy3 or Cy5 as described in Clontech Atlas™ Glass Fluorescent Labeling kit manual (www.clontech.com). After hydrolysis of the RNA and purification of the probe (Centricon 50, Millipore, Bedford, Mass.), the cDNA in TE buffer was quantitated by absorbance at 260 nm. […]
compound,measurement,setting,value
"CCCCCCCCCCCCCC(=O)O[C@@H]1[C@@H](C)[C@@]2(O)[C@@H](C=C(CO)C[C@]3(O)C(=O)C(C)=C[C@@H]23)[C@@H]2C(C)(C)[C@]12OC(C)=O [PMA, phorbol 12-myristate 12-acetate]",Normalized by Landmarks (1.59),PBX0140D01 mRNA,3.66
same,Normalized by all Data Points (1.28),PBX0140D01 mRNA,2.94
same,Ratio of Medians (Cy5/Cy3) First Spot,PBX0140D01 mRNA,2.09
same,Ratio of Medians (Cy5/Cy3) Mean,PBX0140D01 mRNA,2.30 ± 0.20
same,Ratio of Medians (Cy5/Cy3) Second Spot,PBX0140D01 mRNA,2.50
same,(CY3/CY5) by Landmarks (1.6),PBX0140F01 mRNA,2.39
same,(CY3/CY5) by all Data Points (1.3),PBX0140F01 mRNA,3.83
same,Normalization by Landmarks (1.6),PBX0140F01 mRNA,0.42
same,Normalization by all Data Points (1.3),PBX0140F01 mRNA,0.26
same,Ratio of Medians (Cy5/Cy3) First Spot,PBX0140F01 mRNA,0.24
same,Ratio of Medians (Cy5/Cy3) Mean,PBX0140F01 mRNA,0.20 ± 0.04
same,Ratio of Medians (Cy5/Cy3) Second Spot,PBX0140F01 mRNA,0.16
same,(CY3/CY5) by Landmarks (1.6),PBX0140H03 mRNA,3.52
same,(CY3/CY5) by all Data Points (1.3),PBX0140H03 mRNA,5.64
same,Normalization by Landmarks (1.6),PBX0140H03 mRNA,0.28
same,Normalization by all Data Points (1.3),PBX0140H03 mRNA,0.18
same,Ratio of Medians (Cy5/Cy3) First Spot,PBX0140H03 mRNA,0.09
same,Ratio of Medians (Cy5/Cy3) Mean,PBX0140H03 mRNA,0.14 ± 0.05
same,Ratio of Medians (Cy5/Cy3) Second Spot,PBX0140H03 mRNA,0.19
same,(CY3/CY5) by Landmarks (1.6),PBX0141B03 mRNA,1.74
same,(CY3/CY5) by all Data Points (1.3),PBX0141B03 mRNA,2.78
same,Normalization by Landmarks (1.6),PBX0141B03 mRNA,0.58
same,Normalization by all Data Points (1.3),PBX0141B03 mRNA,0.36
same,Ratio of Medians (Cy5/Cy3) First Spot,PBX0141B03 mRNA,0.38
same,Ratio of Medians (Cy5/Cy3) Mean,PBX0141B03 mRNA,0.28 ± 0.10
same,Ratio of Medians (Cy5/Cy3) Second Spot,PBX0141B03 mRNA,0.18
same,(CY3/CY5) by Landmarks (1.6),PBX0141F12 mRNA,3.56
same,(CY3/CY5) by all Data Points (1.3),PBX0141F12 mRNA,5.70
same,Normalization by Landmarks (1.6),PBX0141F12 mRNA,0.28
same,Normalization by all Data Points (1.3),PBX0141F12 mRNA,0.18
same,Ratio of Medians (Cy5/Cy3) First Spot,PBX0141F12 mRNA,0.10
same,Ratio of Medians (Cy5/Cy3) Mean,PBX0141F12 mRNA,0.14 ± 0.03
same,Ratio of Medians (Cy5/Cy3) Second Spot,PBX0141F12 mRNA,0.17
same,(CY3/CY5) by Landmarks (1.6),PBX0141G06 mRNA,1.67
same,(CY3/CY5) by all Data Points (1.3),PBX0141G06 mRNA,2.67
same,Normalization by Landmarks (1.6),PBX0141G06 mRNA,0.60
same,Normalization by all Data Points (1.3),PBX0141G06 mRNA,0.38
same,Ratio of Medians (Cy5/Cy3) First Spot,PBX0141G06 mRNA,0.17
same,Ratio of Medians (Cy5/Cy3) Mean,PBX0141G06 mRNA,0.29 ± 0.12
same,Ratio of Medians (Cy5/Cy3) Second Spot,PBX0141G06 mRNA,0.41
same,Normalized by Landmarks (1.59),PBX0141G10 mRNA,4.98
same,Normalized by all Data Points (1.28),PBX0141G10 mRNA,4.01
same,Ratio of Medians (Cy5/Cy3) First Spot,PBX0141G10 mRNA,2.53
same,Ratio of Medians (Cy5/Cy3) Mean,PBX0141G10 mRNA,3.13 ± 0.59
same,Ratio of Medians (Cy5/Cy3) Second Spot,PBX0141G10 mRNA,3.72
same,(CY3/CY5) by Landmarks (1.6),PBX0142E01 mRNA,2.64
same,(CY3/CY5) by all Data Points (1.3),PBX0142E01 mRNA,4.23
same,Normalization by Landmarks (1.6),PBX0142E01 mRNA,0.38
same,Normalization by all Data Points (1.3),PBX0142E01 mRNA,0.24
same,Ratio of Medians (Cy5/Cy3) First Spot,PBX0142E01 mRNA,0.14
same,Ratio of Medians (Cy5/Cy3) Mean,PBX0142E01 mRNA,0.18 ± 0.04
same,Ratio of Medians (Cy5/Cy3) Second Spot,PBX0142E01 mRNA,0.22
same,Normalized by Landmarks (1.59),PBX0142E09 mRNA,4.32
same,Normalized by all Data Points (1.28),PBX0142E09 mRNA,3.48
same,Ratio of Medians (Cy5/Cy3) First Spot,PBX0142E09 mRNA,2.50
same,Ratio of Medians (Cy5/Cy3) Mean,PBX0142E09 mRNA,2.72 ± 0.21
same,Ratio of Medians (Cy5/Cy3) Second Spot,PBX0142E09 mRNA,2.93
same,(CY3/CY5) by Landmarks (1.6),PBX0142H06 mRNA,2.52
same,(CY3/CY5) by all Data Points (1.3),PBX0142H06 mRNA,4.04
same,Normalization by Landmarks (1.6),PBX0142H06 mRNA,0.40
same,Normalization by all Data Points (1.3),PBX0142H06 mRNA,0.25
same,Ratio of Medians (Cy5/Cy3) First Spot,PBX0142H06 mRNA,0.15
same,Ratio of Medians (Cy5/Cy3) Mean,PBX0142H06 mRNA,0.19 ± 0.04
same,Ratio of Medians (Cy5/Cy3) Second Spot,PBX0142H06 mRNA,0.23
same,(CY3/CY5) by Landmarks (1.6),PBX0143C01 mRNA,2.54
same,(CY3/CY5) by all Data Points (1.3),PBX0143C01 mRNA,4.07
same,Normalization by Landmarks (1.6),PBX0143C01 mRNA,0.39
same,Normalization by all Data Points (1.3),PBX0143C01 mRNA,0.25
same,Ratio of Medians (Cy5/Cy3) First Spot,PBX0143C01 mRNA,0.16
same,Ratio of Medians (Cy5/Cy3) Mean,PBX0143C01 mRNA,0.19 ± 0.03
same,Ratio of Medians (Cy5/Cy3) Second Spot,PBX0143C01 mRNA,0.22
same,(CY3/CY5) by Landmarks (1.6),PBX0143D10 mRNA,1.57
same,(CY3/CY5) by all Data Points (1.3),PBX0143D10 mRNA,2.51
